In assay [1] the test system is HIO-derived intestinal epithelial cells. Put plainly: Western blot of STAT1 phosphorylation in Intestine-Chip exposed to IFNγ. It counts as cell-based, human. Conditions: 10-1000 ng/ml in lower channel for one hour. How it is done: (§1) FIG. 3. a) Western blot analysis showing phosphorylation of STAT1 in Chips containing either HIO-derived intestinal epithelial or Caco2 cells in response to exposure of increasing concentrations (0-1000 ng/ml) of IFNγ in the lower channel for 1 hour. Both GAPDH and STAT1 were used as loading controls. Image J analysis was used to quantify levels of phosphorylation of STAT1 compared to GAPDH b) Quantitative reverse transcription-polymerase chain reaction analyses of IDO1 and GBP1 and c) PLA2G2a, Muc4, lysozyme, Reg3γin Chips incorporating either HIO-derived epithelial or Caco2 cells in response to exposure of 10 ng/ml of IFNγ in the lower channel for 3 days. Three independent experiments were carried out; data represent mean and s.e.m; *P<0.05, **P<0.01 compared to respective untreated controls. […] Two independent experiments were carried out; data represent mean±SEM. **P<0.01. AUC, area under the curve; CTL, control; GAPDH, glyceraldehyde-3-phosphate dehydrogenase.
(§2) PBS was flushed through both the upper and lower channels and total protein was extracted in situ using cell lysis buffer (Cell Signaling cat #9803s) supplemented with protease and […] inhibitor (Sigma, # MSSAFE). Protein concentration was then determined and equal amounts of protein lysates were heat denatured and separated on a 10% mini-protean precast gel (Bio-Rad, #456-8034). […]
(In general: In western blotting, separated proteins are transferred to a membrane and probed.)

Assay [2] has as its system Caco2 cells. Put plainly: Western blot of STAT1 phosphorylation in Caco2 Chip exposed to IFNγ. The assay is classed as cell-based. To be noted: 10-1000 ng/ml in lower channel for one hour. The method, then: as §1, §2
Assay [3] concerns Caco2 cells. Put plainly: qRT-PCR gene expression in Caco2 Chip exposed to IFNγ. It counts as cell-based. Conditions: 10 ng/ml for 3 days. How it is done:
as §1
(§3) PBS was flushed through both the upper and lower channels and total RNA from the Intestine-Chip was extracted in situ with the RNeasy mini kit (Qiagen, USA). cDNA was generated from 1 μg of RNA using the Omniscript RT Kit (Qiagen). qRT-PCR was performed using SYBR® Select Master Mix (Applied Biosystems) on a BioRad CFX384 Real-Time System. Primer sequences as follows:
(§4) As Caco2 cells are routinely used to assess intestinal epithelial responses and have previously been incorporated into Chips, the Inventors also included these in the Inventors' studies to directly compare the Intestine-Chip. […] Thus both cell types were incubated with 10 ng/ml of IFNγ for 3 days and assessed for upregulation of indoleamine 2 3-dioxygenase (IDO1) and guanylate binding protein 1 (GBP1).

In assay [4] the test system is HIO-derived epithelial cells. Put plainly: qRT-PCR gene expression in Intestine-Chip exposed to IFNγ. The assay is classed as cell-based, human. How it is done:
as §1, §3, §4

Setting [5] is: attenuated in comparison to HIO-epithelial cells.
[6] abbreviates: 10 ng/ml in lower channel for 3 days.

Experimental findings from patent US20200157508A1, “SYSTEMS AND METHODS FOR GROWTH OF INTESTINAL CELLS” (CEDARS-SINAI MEDICAL CENTER, priority 2017, published 2020) are described below.

For the substance “IFNγ: a cytokine known to be upregulated in IBD”, the “phosphorylation of STAT1” value in assay [1] was “robust phosphorylation of STAT1”. In the assay with Caco2 cells [2], the “phosphorylation of STAT1” value was “robust phosphorylation of STAT1”. For the same substance, the “expression of PLA2G2a, Muc4, lysozyme, Reg3γ” value with Caco2 cells [3] is reported as “did not observe any significant upregulation”. For the same substance, in the assay on Caco2 cells [3] (setting [5]), the “GBP1 expression vs controls” value is recorded as “significant upregulation” and the “IDO1 expression vs controls” value is “significant upregulation”. In assay [4] (10 ng/ml for 3 days), the Muc4 expression result is “significant upregulation”, the PLA2G2a expression result is given as “significant upregulation”, the Reg3γ expression result is “no differences” and the lysozyme expression result was “no differences”. In assay [4] (setting [6]), the “GBP1 expression vs controls” value is on record as “significant increase” and the “IDO1 expression vs controls” value was “significant increase”.
